Substitutions are numbered along the chain they refer to. Like-named read-outs stand apart in the source and are kept apart here.

One assay deals with T1, MGL (Rattus norvegicus, UniProt Q8R431).
T1 construct: one g rat brain was homogenized using a Polytron homogenizer; from tissue; host or cells: rat brain homogenate
T1 sequence (Q8R431 1-303): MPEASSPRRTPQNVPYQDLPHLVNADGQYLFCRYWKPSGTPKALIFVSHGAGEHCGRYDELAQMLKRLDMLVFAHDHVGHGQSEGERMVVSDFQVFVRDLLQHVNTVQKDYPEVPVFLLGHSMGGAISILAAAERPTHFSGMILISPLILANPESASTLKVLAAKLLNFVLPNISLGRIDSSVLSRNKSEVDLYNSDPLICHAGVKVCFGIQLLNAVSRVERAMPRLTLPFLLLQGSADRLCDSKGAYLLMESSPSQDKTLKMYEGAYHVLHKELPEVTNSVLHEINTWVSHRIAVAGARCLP
The experiment in a line: 2-AG accumulation assay in rat brain homogenate. It is filed as biochemical. The conditions noted are these: rat brain homogenate, 2-AG accumulation as percent of vehicle; for 2-AG accumulation, % of vehicle control at 10 µM: compound 10 μM, read-out: Rat Brain 2AG % VehCntrl (%) @ 10 μM; for 2-AG accumulation, % of vehicle control at 1 µM: compound 1 μM, read-out: Rat Brain 2AG % VehCntrl (%) @ 1 μM.

Another assay deals with T2, mutant MGL (Homo sapiens, UniProt Q99685, L169S/L176S).
T2 sequence (Q99685 1-303 L169S/L176S): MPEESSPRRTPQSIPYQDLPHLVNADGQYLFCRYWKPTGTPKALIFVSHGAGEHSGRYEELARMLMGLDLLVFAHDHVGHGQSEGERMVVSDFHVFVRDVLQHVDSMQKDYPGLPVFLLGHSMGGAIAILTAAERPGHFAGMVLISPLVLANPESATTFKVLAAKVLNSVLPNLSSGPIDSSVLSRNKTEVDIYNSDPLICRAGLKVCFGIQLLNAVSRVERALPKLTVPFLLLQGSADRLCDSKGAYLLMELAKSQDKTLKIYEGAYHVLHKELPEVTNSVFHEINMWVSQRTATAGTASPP
The experiment in a line: MGL ThermoFluor assay - mutant. It is filed as binding. A general note: Differential scanning fluorimetry follows unfolding on heating by fluorescence.

The target in assay [1] is T3, purified wild type MGL (wt-MGLL 6H-11-313) (Homo sapiens, UniProt Q99685).
T3 sequence (Q99685 1-303): T2 sequence (Q99685 1-303 L169S/L176S) with S169L, S176L

The mark [2] stands for this setting: ThermoFluor thermal stability binding assay, read-out: MGL mutant ThermoFluor Kd.
The mark [3] stands for this setting: ThermoFluor concentration-response, read-out: MGL mutant ThermoFluor Kd.
The mark [4] stands for this setting: compound concentration measured by qNMR, read-out: MGL mutant ThermoFluor qKd (using qNMR conc.).
Setting [5] is: ThermoFluor, compound concentration measured by qNMR, read-out: MGL mutant ThermoFluor qKd (μM) (using qNMR conc.).
[6] abbreviates: ThermoFluor, compound concentration measured by qNMR, read-out: MGL mutant ThermoFluor qKd (using qNMR conc.).

Turning to `O=C(c1ccc2c(-c3ccccc3)cccc2c1)N1CC(N2CCN(C(=O)c3nccs3)CC2)C1` [Cpd 338, 1-{1-[(5-Phenylnaphthalen-2-yl)carbonyl]azetidin-3-3yl}-4-(1,3-thiazol-2-ylcarbonyl)piperazine], at MGL, the 2-AG accumulation, % of vehicle control at 10 µM is 791%. In addition, the Kd on mutant MGL (setting [2]) came to 0.0011 µM. The IC50 – broadly, the concentration needed to halve the response being measured – in assay [1] was below 0.005 µM.

On to `O=C(c1ccc(Oc2cccc(Cl)c2)nc1)N1CC(N2CCN(C(=O)c3nccs3)CC2)C1` [Cpd 683], for which the 2-AG accumulation, % of vehicle control at 1 µM on MGL was determined as 335%. In addition, on mutant MGL (setting [3]), the Kd was found to be 0.039 µM. In assay [1], this molecule had an IC50 of 0.031 µM.

Regarding `O=C(c1ccc(-c2ccc(Br)cc2)cc1)N1CC(N2CCN(C(=O)c3nccs3)CC2)C1` [Cpd 168, 1-{1-[(4′-Bromobiphenyl-4-yl)carbonyl]azetidin-3-yl}-4-(1,3-thiazol-2-ylcarbonyl)piperazine], the 2-AG accumulation, % of vehicle control at 1 µM on MGL worked out at 813%. The Kd on mutant MGL (setting [3]) was determined as 0.01 µM. Further, in assay [1], the IC50 is below 0.005 µM.

Regarding `O=C(c1ccc(-c2ccc(C(F)(F)F)s2)cc1)N1CCN(C2CN(C(=O)c3ccc[nH]3)C2)CC1` [Cpd 1162], the 2-AG accumulation, % of vehicle control at 1 µM at MGL was 237%. The Kd at mutant MGL (setting [4]) is 0.014 µM. In assay [1], this molecule came in with an IC50 of 0.047 µM.

Regarding `Cc1c(C(=O)N2CCN(C3CN(C(=O)c4cscn4)C3)CC2)sc2cc(C(F)(F)F)ccc12` [Cpd 705], on MGL, the 2-AG accumulation, % of vehicle control at 1 µM stood at 487%. The Kd on mutant MGL (setting [3]) turned out to be 0.012 µM. The IC50 in assay [1] amounted to 0.099 µM.

Regarding `Cc1sc(C(=O)N2CC(N3CCN(C(=O)c4nccs4)CC3)C2)cc1-c1cccc(F)c1` [Cpd 1059], the 2-AG accumulation, % of vehicle control at 1 µM on MGL was 507%. The Kd at mutant MGL (setting [5]) amounted to 0.066 µM. For the same molecule, half-maximal inhibition in assay [1] (IC50) required 0.006 µM.

As to `COc1cc(C(=O)N2CC(N3CCN(C(=O)c4cscn4)CC3)C2)ccc1-c1cccc(C(F)(F)F)c1` [Cpd 248, 1-(1-{[2-Methoxy-3′-(trifluoromethyl)biphenyl-4-yl]carbonyl}azetidin-3-yl)-4-(1,3-thiazol-4-ylcarbonyl)piperazine], on MGL, the 2-AG accumulation, % of vehicle control at 1 µM was determined as 312%. Also, the Kd at mutant MGL (setting [2]) turned out to be 0.0067 µM. The same molecule displayed an IC50 in assay [1] of 0.007 µM.

As for `O=C(c1cc[nH]c1)N1CC(N2CCN(C(=O)c3cc4cc(C(F)(F)F)ccc4s3)CC2)C1` [Cpd 741, 1-[1-(1H-Pyrrol-3-ylcarbonyl)azetidin-3-yl]-4-{[5-(trifluoromethyl)-1-benzothiophen-2-yl]carbonyl}piperazine], the 2-AG accumulation, % of vehicle control at 1 µM on MGL stood at 182%. Besides, the Kd on mutant MGL (setting [3]) was 0.2 µM. For the same molecule, the IC50 in assay [1] turned out to be 0.298 µM.

As to `O=C(c1ccc(-n2nc3c(c2-c2cccc(C(F)(F)F)c2)CCC3)cc1)N1CC(N2CCN(C(=O)c3nccs3)CC2)C1` [Cpd 1330], the 2-AG accumulation, % of vehicle control at 1 µM on MGL was found to be 589%. For the same molecule, the Kd turned out to be 0.002 µM at mutant MGL (setting [3]) and 0.005 µM at mutant MGL (setting [6]). The IC50 in assay [1] is below 0.005 µM.

With `O=C(c1ccc(-c2ccccc2)cc1)N1CC(N2CCN(C(=O)c3cccs3)CC2)C1` [Cpd 13, 1-[1-(Biphenyl-4-ylcarbonyl)azetidin-3-yl]-4-(thiophen-2-ylcarbonyl)piperazine], the 2-AG accumulation, % of vehicle control at 10 µM at MGL was found to be 730%. Further, at mutant MGL (setting [3]), the Kd came out at 0.003 µM. In assay [1], this molecule displayed an IC50 of 0.0192 µM.

Turning to `O=C(c1ccc2c(ccn2-c2ccc(C(F)(F)F)cc2)c1)N1CCN(C2CN(C(=O)c3ccc[nH]3)C2)CC1` [Cpd 1120, 5-({4-[1-(1H-Pyrrol-2-ylcarbonyl)azetidin-3-yl]piperazin-1-yl}carbonyl)-1-[4-(trifluoromethyl)phenyl]-1H-indole], on MGL, the 2-AG accumulation, % of vehicle control at 1 µM was 867%. Besides, at mutant MGL (setting [6]), the Kd came out at 0.02 µM. In assay [1], this molecule came in with an IC50 of 0.018 µM.

With `O=C(c1cscn1)N1CCN(C2CN(C(=O)c3ccc(-c4cccc(C(F)(F)F)c4)cc3F)C2)CC1` [Cpd 245, 1-(1-{[3-Fluoro-3′-(trifluoromethyl)biphenyl-4-yl]carbonyl}azetidin-3-yl)-4-(1,3-thiazol-4-ylcarbonyl)piperazine], on MGL (compound 0.1 μM, read-out: Rat Brain 2AG % VehCntrl (%) @ 0.1 μM), the 2-AG accumulation, % of vehicle control at 0.1 µM came out at 224%. Also, at MGL, the 2-AG accumulation, % of vehicle control at 1 µM was 518% and the 2-AG accumulation, % of vehicle control at 10 µM was 829%. Also, the Kd at mutant MGL (setting [2]) amounted to 0.0095 µM. The IC50 in assay [1] worked out at 0.0164 µM.

Take `O=C(c1ccccc1)N1CCN(C2CN(C(=O)c3ccc(Sc4cccc(C(F)(F)F)c4)cc3)C2)CC1` [Cpd 430]: on MGL, the 2-AG accumulation, % of vehicle control at 1 µM is 114%. Besides, the Kd on mutant MGL (setting [3]) was found to be 0.0667 µM. In assay [1], this molecule returned an IC50 of 0.0236 µM.

As for `O=C(c1cc2cc(-c3cccc(C(F)(F)F)c3)ccc2o1)N1CC(N2CCN(C(=O)c3nccs3)CC2)C1` [Cpd 1343], the 2-AG accumulation, % of vehicle control at 1 µM on MGL came to 838%. For the same molecule, the Kd on mutant MGL (setting [2]) worked out at 0.077 µM. Also, the IC50 in assay [1] was below 0.005 µM.

With `O=C(c1ccc2c(c1)CCN2c1ccc(F)cc1)N1CC(N2CCN(C(=O)c3nccs3)CC2)C1` [Cpd 885, 1-(4-Fluorophenyl)-5-({3-[4-(1,3-thiazol-2-ylcarbonyl)piperazin-1-yl]azetidin-1-yl}carbonyl)-2,3-dihydro-1H-indole], the 2-AG accumulation, % of vehicle control at 1 µM at MGL turned out to be 722%. Besides, the Kd on mutant MGL (setting [4]) came out at 0.001 µM. In addition, the half-maximal inhibitory concentration (IC50) in assay [1] was below 0.005 µM.

As to `O=C(c1ccc2c(c1)CCN(C(=O)c1cccs1)C2)N1CC(N2CCN(C(=O)c3nccs3)CC2)C1` [Cpd 665], at MGL, the 2-AG accumulation, % of vehicle control at 1 µM is 507%. Further, at mutant MGL (setting [2]), the Kd was 0.058 µM. The molecule also returned an IC50 in assay [1] of 0.013 µM.

For the molecule `O=C(c1ccc(Oc2ccc(Br)cn2)cc1)N1CC(N2CCN(C(=O)c3nccs3)CC2)C1` [Cpd 877], the 2-AG accumulation, % of vehicle control at 1 µM at MGL came out at 475%. In addition, the Kd on mutant MGL (setting [3]) is 0.1 µM. In assay [1], the IC50 was below 0.005 µM.

For `Cn1ccc2cc(C(=O)N3CC(N4CCN(C(=O)c5nccs5)CC4)C3)cc(-c3ccc(F)cc3)c21` [Cpd 1101], the 2-AG accumulation, % of vehicle control at 1 µM on MGL was 501%. The Kd at mutant MGL (setting [5]) was 0.044 µM. In assay [1], this molecule showed an IC50 of 0.012 µM.

On to `O=C(c1ccc2nc(-c3ccc(F)c(F)c3)oc2c1)N1CC(N2CCN(C(=O)c3nccs3)CC2)C1` [Cpd 1077], for which the 2-AG accumulation, % of vehicle control at 1 µM on MGL amounted to 667%. Besides, the Kd at mutant MGL (setting [5]) worked out at 0.02 µM. In assay [1], this molecule came in with an IC50 of 0.008 µM.

Regarding `O=C(c1ccc2c(ccn2-c2cc(F)c(F)c(F)c2)c1)N1CC(N2CCN(C(=O)c3cscn3)CC2)C1` [Cpd 1055], the 2-AG accumulation, % of vehicle control at 1 µM on MGL was 701%. Further, at mutant MGL (setting [5]), the Kd came out at 0.02 µM. This molecule had an IC50 in assay [1] of 0.005 µM.

For the molecule `O=C(c1nccs1)N1CCN(C2CN(C(=O)c3sc4cc(F)ccc4c3C3CCC3)C2)CC1` [Cpd 695], on MGL, the 2-AG accumulation, % of vehicle control at 1 µM amounted to 497%. The Kd on mutant MGL (setting [3]) came to 0.001 µM. In assay [1], this molecule came in with an IC50 of 0.057 µM.

As to `O=C(c1ccc2c(c1)CCN(Cc1ccccc1)C2)N1CC(N2CCN(C(=O)c3nccs3)CC2)C1` [Cpd 680, 2-Benzyl-6-({3-[4-(1,3-thiazol-2-ylcarbonyl)piperazin-1-yl]azetidin-1-yl}carbonyl)-1,2,3,4-tetrahydroisoquinoline], the 2-AG accumulation, % of vehicle control at 1 µM on MGL was determined as 356%. The Kd at mutant MGL (setting [2]) worked out at 0.053 µM. The molecule also returned an IC50 in assay [1] of 0.025 µM.

Consider `O=C(c1ccc2nc(-c3ccc(F)c(F)c3)oc2c1)N1CC(N2CCN(C(=O)c3cscn3)CC2)C1` [Cpd 1178], for which the 2-AG accumulation, % of vehicle control at 1 µM on MGL was found to be 292%. Moreover, the Kd on mutant MGL (setting [5]) was determined as 0.238 µM. Moreover, it took 0.071 µM to reach half-maximal inhibition in assay [1] (IC50).

Consider `O=C(c1ccc(Oc2cc(C(F)(F)F)ccc2F)nc1)N1CC(N2CCN(C(=O)c3nccs3)CC2)C1` [Cpd 878], for which the 2-AG accumulation, % of vehicle control at 1 µM at MGL was found to be 288%. Moreover, the Kd at mutant MGL (setting [3]) is 0.088 µM. Moreover, the 50% inhibitory concentration (IC50) in assay [1] is below 0.005 µM.

Regarding `O=C(c1nccs1)N1CCN(C2CN(C(=O)c3nn(-c4ccc(Cl)cc4Cl)c4c3CSC/C4=C\c3ccc(F)cc3)C2)CC1` [Cpd 1021], the 2-AG accumulation, % of vehicle control at 1 µM on MGL came to 232%. Further, the Kd on mutant MGL (setting [3]) was determined as 0.239 µM. Besides, it took 0.015 µM to reach half-maximal inhibition in assay [1] (IC50).

The values are drawn from US8362000B2, “Azetidinyl diamides as monoacylglycerol lipase inhibitors” (Janssen Pharmaceutica NV, priority 2009, dated 2013).
